Data published in patent US20230303623A1, “PEPTIDES AND METHODS OF USE” (REALTA LIFE SCIENCES, INC., priority 2020, published 2023).
“Also recorded” adds a separate entry of the source.

Tests used:
[1] = Total Antioxidant Capacity (TAC) assay; settings: highest peptide concentration 1.5 mM; compared to parent peptide
In short: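 Copper(II)-to-copper(I) reduction kit used per manufacturer to measure antioxidant capacity of PIC1 peptide variants over a concentration range; activity reported at the highest peptide concentration, 1.5 mM.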

C1q = target: T1, C1q (Homo sapiens, UniProt P02745+P02746+P02747); test: C1q binding ELISA-type assay; settings: compared to parent peptide
T1 construct: purchased Complement Technology (Tyler, TX)
Description: The C1q binding assay was performed as previously described. Briefly, an Immunlon-2 HB ELISA plate was coated with 1 μg/ml C1q in bicarbonate buffer overnight at 4° C. The plates were washed with PBS-T (phosphate buffered saline+0.1% Tween) and then blocked with 1% gelatin/PBS for 2 hours at room temperature. After washing, the plates were incubated with the peptides starting at 2.5 mg/ml and then serially diluted in 1% gelatin/PBS for 1 hour at room temperature followed by washing. Plates were then probed with rabbit antibody raised against the lead peptide […] (SEQ ID NO: 2) that lacked PEGylation at 1:1000 in 1% gelatin/PBS for 1 hour at room temperature followed by a goat anti-rabbit HRP (Sigma Aldrich, St Louis, MO) at 1:1,000 in 1% gelatin/PBS for 1 hour at room temperature with a washing step in between. After addition of TMB substrate solution to the wells, the reaction was stopped using 1N H2SO4, and the plate read on a BioTek Synergy HT plate reader at 450 nm.
The astrovirus capsid protein and the PIC1 molecules derived from it inhibit classical complement pathway activation by binding to the pattern recognition molecule C1q. The inventors next tested peptide variant binding to C1q in an ELISA-type assay in which C1q is used as the capture substrate and bound peptide detected with a rabbit polyclonal antibody against the peptide portion of PA-dPEG24 ([…]-d24; SEQ ID NO: 3). Binding curves were derived for the stapled and D-amino acid peptides based on the PA-I8Sar and PA-C9Sar (FIG. 5A-5C) backbone, from which half-maximal binding concentrations were calculated (FIGS. 2A and B, respectively). […] For the peptides based on the PA-C9Sar backbone, C1q was bound to a greater degree than the parent peptide (FIG. 2B).

TC-1 cells = test: TC-1 tumor cell model in C57Bl/6 mice; format: in vivo, mouse
Description: Animals were injected with 4×10^5 TC-1 cells subcutaneously into the flank of the animal. Five days later, animals received vehicle treatment with saline (n=6), or drug treatment with RLS-0122 (n=8) IV at 160 mg/kg 1×/day for 15 consecutive days. Animals were also evaluated for behavior and body condition scoring every 2 days for duration of the study. If scoring reached 7 or below, animals were assessed daily. A score of 5 or below was considered endpoint for euthanasia.
To evaluate the efficacy of RLS-0122 in an in vivo system, the inventors utilized the TC-1 tumor cell model in C57Bl/6 mice as previously reported (Roumenina et al., Cancer Immunol Res; 7(7) July 2019). […] When TC-1 cells are introduced into the flank of the mouse, very aggressive tumor formation occurs, resulting in 100% death in approximately 26 days. To test the efficacy of RLS-0122 on survival and quality of life in this model, animals were injected with 4×10^5 TC-1 cells subcutaneously into the flank of the animal. Five days later, animals received vehicle treatment with saline (n=6), or drug treatment with RLS-0122 (n=8) IV at 160 mg/kg 1×/day for 15 consecutive days. […] Animals were also evaluated for behavior and body condition scoring every 2 days for duration of the study. If scoring reached 7 or below, animals were assessed daily. A score of 5 or below was considered endpoint for euthanasia.

[2] = test system: purified human Pan T-cells; test: T-cell exhaustion protocol (repeated CD3/CD28 Dynabead stimulation); format: cell-based; settings: ELISA, listed as RLS-0122
Description: Purified human pan-T-cells were subject to stimulation with Dynabeads every 48 hours over the period of 8 days with cells also receiving PIC1 peptides (2 mg/ml) at each stimulation. Cells not receiving Dynabeads were run in parallel to assess background levels of Caspase 3/7 signal. At the eighth day, cells were harvested, and the levels of Caspase 3/7 determined by ELISA.
Purified human pan-T-cells were subject to stimulation with Dynabeads every 48 hours over the period of 8 days with cells also receiving PIC1 peptides (2 mg/ml) at each stimulation. Cell supernatants were collected at each stimulation and levels of IL-2 and IFN-gamma assayed by ELISA.
T-cell exhaustion is a form of T-cell dysfunction that occurs in cancer. It is generally defined by poor effector function, reduction in cytokine release (e.g., IL-2, TNF-alpha, IFN-gamma), sustained expression of inhibitory receptors (e.g., PD-1, LAG-3, CD244, CD160) with the progressive loss of effector function due to overstimulation. Exhaustion can prevent optimal control of tumor growth. Exhausted T cells are prevalent in the tumor microenvironment (TME) and can lead to T-cell apoptosis. T-cell exhaustion is reversible and pharmaceutical inhibition of T-cell exhaustion has been considered a promising strategy by many cancer researchers. To ascertain if PIC1 peptides could reverse T-cell exhaustion and increase T cell viability and effector function, a T-cell exhaustion protocol was developed. To induce T-cell exhaustion, purified human Pan T-cells were stimulated with T-Activator CD3/CD28 Dynabeads and cells were washed and re-stimulated every 48 hours. PIC1 peptides were added to the cells after each stimulation with Dynabeads. After three to four stimulations, cells were harvested for readouts which consisted of assessing T-cell apoptosis by measuring Caspase 3/7 levels and production of cytokines IL-2 and IFN-gamma, which are indicative of T-cell functionality. […] To further evaluate if PIC1 peptides could restore T-cell functionality in cells that have undergone the exhaustion protocol, the inventors next assessed production of cytokines IL-2 and IFN-gamma. Supernatants from the cells after each stimulation was collected and the cytokines measured by ELISA. […] The lower level of IFN-gamma signal was consistently seen in this assay.

[3] = peptides 2 mg/ml, stimulation 2

T1 sequence (P02745 23-245): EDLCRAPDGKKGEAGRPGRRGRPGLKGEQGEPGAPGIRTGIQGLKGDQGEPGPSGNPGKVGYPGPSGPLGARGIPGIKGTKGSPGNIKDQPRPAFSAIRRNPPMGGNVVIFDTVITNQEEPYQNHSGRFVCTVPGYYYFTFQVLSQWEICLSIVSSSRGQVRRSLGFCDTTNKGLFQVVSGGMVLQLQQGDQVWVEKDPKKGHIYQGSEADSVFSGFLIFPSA
T1 sequence (P02746 28-253): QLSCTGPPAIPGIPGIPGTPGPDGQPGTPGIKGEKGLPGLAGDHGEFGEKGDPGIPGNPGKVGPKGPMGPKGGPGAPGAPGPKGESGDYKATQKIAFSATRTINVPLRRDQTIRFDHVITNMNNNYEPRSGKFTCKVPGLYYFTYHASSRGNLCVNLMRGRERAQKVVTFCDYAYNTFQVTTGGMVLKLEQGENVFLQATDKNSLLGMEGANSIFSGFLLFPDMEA
T1 sequence (P02747 29-245): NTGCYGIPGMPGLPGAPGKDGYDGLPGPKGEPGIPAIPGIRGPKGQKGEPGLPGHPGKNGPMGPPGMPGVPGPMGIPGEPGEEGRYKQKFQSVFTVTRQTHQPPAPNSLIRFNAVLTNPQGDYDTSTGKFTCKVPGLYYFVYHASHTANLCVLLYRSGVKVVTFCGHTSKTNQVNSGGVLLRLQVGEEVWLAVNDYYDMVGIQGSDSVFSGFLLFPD

In the case of “IAdLILEP(Sar)CCQERAA (IALILEPXCCQERAA; D-Leu; sarcosine; MOD_RES (3)..(3) D-amino acid; MOD_RES (8)..(8) Sarcosine) [PA-0122]”, the “total antioxidant capacity, in words” value [1] is reported as “slight increase in total antioxidant capacity”, the “binding to C1q (binding curves, half-maximal binding), in words” value (C1q) is reported as “markedly increased binding to C1q” and the “median survival longer than vehicle” value (TC-1 cells; IV 160 mg/kg 1x/day for 15 consecutive days, p=0.0465) is reported as 8 days. For the same substance, the “quality of life (behavior and body condition scoring), in words” value (TC-1 cells; IV 160 mg/kg 1x/day for 15 days, significant on days 22-26 (p<0.05)) was “increased quality of life”, the “Caspase 3/7 levels, in words” value ([2]; peptides 2 mg/ml at each stimulation, day 8) was “very low to undetectable levels; also recorded: reduced levels” and the “IFN-gamma levels in cell supernatants, in words” value [2, 3] was “detectable at stimulation 2; also recorded: increased levels”. For the same substance, the “IL-2 levels in cell supernatants, in words” value [2, 3] was “detectable IL-2 at stimulation 2; also recorded: increased levels”.
